Tests used:
[1] = system: Penicillium notatum-KMO (R); assay: MBC (minimum bactericidal concentration) test in Wash NEXT reagent; type: cell-based; parameters: key to MBC test growth score: number = actual colony count; + full mat, − no growth
Experimental: (§1) The stock organisms were thawed and subbed prior to beginning the MBC test. Molds were subbed to SDA plates one week before, and the bacteria were subbed to TAT agar plates 24 hours prior to the start of the test. All plates were incubated at 32 degrees C.
(§2) For the molds, each organism was inoculated into 40 ml sterile saline in a centrifuge tube to create a density of MacFarland #5. Two serial dilutions of 1:100 were then made, resulting in 10^−2 and 10^−4 concentrations. Each dilution was vortexed before it was sampled, and sterile Eppendorf pipette tips were used to make each transfer. The 10^−4 dilution was spiral plated to yield the initial inoculum concentration.
(§3) MBC trays were set up with the prepared test reagent. Using a Matrix pipettor, 100 μl aliquots of reagent were distributed into the wells, diluting the amount of preservative from 100% to 10% increments, using unpreserved reagent as the diluent. In one row, 100% non-preserved reagent acted as a positive control and served as a benchmark for a full mat of growth. In well #12H, 100 μl unpreserved reagent was pipetted, and this well was not inoculated with organisms, as it served as the negative control. Once all of the trays were prepared, the prepared bacteria/mold suspensions were poured into the MBC inoculating trays. These were placed onto the reagent trays, and 0.01 ml inoculum was introduced into the 100 μl of reagent in each well.
(§4) This was done by dipping a sterile cotton swab into each well, and absorbing all of the liquid in the well. The swab was rolled onto a TAT agar plate ensuring that the entire swab touches the agar. Plates ware incubated at 32 degrees C. for 48 hours to 7 days, depending on the organism. Observations for growth were performed by a scoring matrix using + for a full mat, +/− for some growth, a numerical value for an actual colony count, and—for no growth.
(§5) Below are tables that contain the data obtained in Example 1. The MBC test is scored by (+) indicating a full grown mat of organisms, equivalent to the organisms in the unpreserved reagent. (+/−) indicates there is some kill evident disturbing that mat or bringing the quantities down to an almost countable level. An actual number is the actual number of colonies growing at that concentration of preservative. (−) indicates no growth found. The MBC trays were stored at room temperature for the entire test.
(§6) The materials and methods and analysis of the MBC test were the same as in Example 1.

[2] = system: Aspergillus glaucus- DMO (Q); assay: as above; type: cell-based; details: at 14 days
Experimental: as §1, §2, §3, §4, §5, §6

**Q.** `Cc1cc(NS(=O)(=O)c2ccc(N)cc2)no1` [Sulfamethoxazole, sulfamethoxazole] was tested. Which “MBC test growth score” value ([1]; 10% preservative, 8 hour) did it give?
**A.** The value was “+”.

**Q.** What about the “MBC test growth score” value ([1]; 10% preservative, 24 hour) of the same compound?
**A.** Its value is “+”.

**Q.** What about the “MBC test growth score” value ([1]; 10% preservative, 48 hour) of the same compound?
**A.** Its value is “+/−”.

**Q.** And the “MBC test growth score” value ([1]; 10% preservative, 72 hour)?
**A.** Its value is “+”.

**Q.** And the “MBC test growth score” value ([1]; 10% preservative, 7 day)?
**A.** The value was “+”.

**Q.** And the “MBC test growth score” value ([1]; 10% preservative, 14 day)?
**A.** Its value is “+/−”.

**Q.** What about the “MBC test growth score” value ([1]; 20% preservative, 8 hour) of the same compound?
**A.** Its value is “+”.

**Q.** What about the “MBC test growth score” value ([1]; 20% preservative, 24 hour) of the same compound?
**A.** The value was “+”.

**Q.** And the “MBC test growth score” value ([1]; 20% preservative, 48 hour)?
**A.** Its value is “+/−”.

**Q.** And the “MBC test growth score” value ([1]; 20% preservative, 72 hour)?
**A.** Its value is “+/−”.

**Q.** What about the “MBC test growth score” value ([1]; 20% preservative, 7 day) of the same compound?
**A.** The value was “+/−”.

**Q.** What about the “MBC test growth score” value ([1]; 20% preservative, 14 day) of the same compound?
**A.** Its value is 31.

**Q.** And the “MBC test growth score” value ([1]; 30% preservative, 8 hour)?
**A.** Its value is “+”.

**Q.** What about the “MBC test growth score” value ([1]; 30% preservative, 24 hour) of the same compound?
**A.** The value was “+”.

**Q.** And the “MBC test growth score” value ([1]; 30% preservative, 48 hour)?
**A.** The value was “+/−”.

**Q.** What about the “MBC test growth score” value ([1]; 30% preservative, 72 hour) of the same compound?
**A.** The value was “+/−”.

**Q.** And the “MBC test growth score” value ([1]; 30% preservative, 7 day)?
**A.** The value was “+/−”.

**Q.** What about the “MBC test growth score” value ([1]; 30% preservative, 14 day) of the same compound?
**A.** The value was 28.

**Q.** And the “MBC test growth score” value ([1]; 40% preservative, 8 hour)?
**A.** The value was “+”.

**Q.** And the “MBC test growth score” value ([1]; 40% preservative, 24 hour)?
**A.** The value was “+”.

**Q.** And the “MBC test growth score” value ([1]; 40% preservative, 48 hour)?
**A.** The value was “+/−”.

**Q.** What about the “MBC test growth score” value ([1]; 40% preservative, 72 hour) of the same compound?
**A.** The value was “+/−”.

**Q.** And the “MBC test growth score” value ([1]; 40% preservative, 7 day)?
**A.** Its value is “+/−”.

**Q.** And the “MBC test growth score” value ([1]; 40% preservative, 14 day)?
**A.** Its value is 25.

**Q.** And the “MBC test growth score” value ([1]; 50% preservative, 8 hour)?
**A.** The value was “+”.

**Q.** What about the “MBC test growth score” value ([1]; 50% preservative, 24 hour) of the same compound?
**A.** Its value is “+”.

**Q.** What about the “MBC test growth score” value ([1]; 50% preservative, 48 hour) of the same compound?
**A.** The value was “+/−”.

**Q.** And the “MBC test growth score” value ([1]; 50% preservative, 72 hour)?
**A.** The value was “+/−”.

**Q.** What about the “MBC test growth score” value ([1]; 50% preservative, 7 day) of the same compound?
**A.** The value was “+/−”.

**Q.** And the “MBC test growth score” value ([1]; 50% preservative, 14 day)?
**A.** Its value is 18.

**Q.** And the “MBC test growth score” value ([1]; 60% preservative, 8 hour)?
**A.** Its value is “+”.

**Q.** What about the “MBC test growth score” value ([1]; 60% preservative, 24 hour) of the same compound?
**A.** The value was “+”.

**Q.** And the “MBC test growth score” value ([1]; 60% preservative, 48 hour)?
**A.** The value was “+/−”.

**Q.** What about the “MBC test growth score” value ([1]; 60% preservative, 72 hour) of the same compound?
**A.** The value was “+/−”.

**Q.** What about the “MBC test growth score” value ([1]; 60% preservative, 7 day) of the same compound?
**A.** Its value is “+/−”.

**Q.** And the “MBC test growth score” value ([1]; 70% preservative, 8 hour)?
**A.** Its value is “+”.

**Q.** And the “MBC test growth score” value ([1]; 70% preservative, 24 hour)?
**A.** The value was “+”.

**Q.** What about the “MBC test growth score” value ([1]; 70% preservative, 48 hour) of the same compound?
**A.** Its value is “+/−”.

**Q.** And the “MBC test growth score” value ([1]; 70% preservative, 72 hour)?
**A.** The value was 18.

**Q.** What about the “MBC test growth score” value ([1]; 70% preservative, 7 day) of the same compound?
**A.** Its value is 9.

**Q.** And the “MBC test growth score” value ([1]; 70% preservative, 14 day)?
**A.** Its value is 10.

**Q.** And the “MBC test growth score” value ([1]; 80% preservative, 8 hour)?
**A.** The value was “+”.

**Q.** What about the “MBC test growth score” value ([1]; 80% preservative, 24 hour) of the same compound?
**A.** Its value is “+”.

**Q.** And the “MBC test growth score” value ([1]; 80% preservative, 48 hour)?
**A.** Its value is “+/−”.

**Q.** What about the “MBC test growth score” value ([1]; 80% preservative, 7 day) of the same compound?
**A.** Its value is 8.

**Q.** What about the “MBC test growth score” value ([1]; 80% preservative, 14 day) of the same compound?
**A.** The value was 6.

**Q.** And the “MBC test growth score” value ([1]; 90% preservative, 8 hour)?
**A.** The value was “+”.

**Q.** And the “MBC test growth score” value ([1]; 90% preservative, 24 hour)?
**A.** Its value is “+”.

**Q.** What about the “MBC test growth score” value ([1]; 90% preservative, 48 hour) of the same compound?
**A.** The value was “+/−”.

**Q.** And the “MBC test growth score” value ([1]; 90% preservative, 72 hour)?
**A.** Its value is 10.

**Q.** What about the “MBC test growth score” value ([1]; 90% preservative, 7 day) of the same compound?
**A.** The value was 7.

**Q.** What about the “MBC test growth score” value ([1]; 90% preservative, 14 day) of the same compound?
**A.** The value was 3.

**Q.** What about the “MBC test growth score” value ([1]; 100% preservative, 8 hour) of the same compound?
**A.** Its value is “+”.

**Q.** What about the “MBC test growth score” value ([1]; 100% preservative, 24 hour) of the same compound?
**A.** The value was “+”.

**Q.** And the “MBC test growth score” value ([1]; 100% preservative, 48 hour)?
**A.** Its value is “+/−”.

**Q.** And the “MBC test growth score” value ([1]; 100% preservative, 72 hour)?
**A.** Its value is 7.

**Q.** And the “MBC test growth score” value ([1]; 100% preservative, 7 day)?
**A.** The value was 4.

**Q.** And the “MBC test growth score” value ([1]; 100% preservative, 14 day)?
**A.** Its value is 2.

**Q.** And the “total kill at % preservative (MBC)” value [2]?
**A.** Its value is “No kill @ 100%”.

Source: patent US20140094424A1, “MICROBICIDAL COMPOSITIONS AND METHODS OF PRODUCTION USE THEREOF” (priority 2011, published 2014)
